Target: human NaV 1.8 (Homo sapiens, UniProt Q9Y5Y9)
Test: E-VIPR Assay Detecting and Measuring NaV Inhibition Properties
Type: cell-based
Conditions: HEK cells expressing a truncated form of human NaV 1.8
Excerpt: Sodium ion channels are voltage-dependent proteins that can be activated by inducing membrane voltage changes by applying electric fields. The electrical stimulation instrument and methods of use, referred to as E-VIPR, are described in International Publication No. WO 2002/008748 A3 and C.-J. Huang et al. Characterization of voltage-gated sodium channel blockers by electrical stimulation and fluorescence detection of membrane potential, 24 Nature Biotech. 439-46 (2006), both of which are incorporated by reference in their entirety. The instrument comprises a microtiter plate handler, an optical system for exciting the coumarin dye while simultaneously recording the coumarin and oxonol emissions, a waveform generator, a current- or voltage-controlled amplifier, and parallel electrode pairs that are inserted into assay plate wells. Under integrated computer control, this instrument passes user-programmed electrical stimulus protocols to cells within the wells of the microtiter plate.
16-20 hours prior to running the assay on E-VIPR, HEK cells expressing a truncated form of human NaV 1.8 with full channel activity were seeded into microtiter 384-well plates, pre-coated with matrigel, at a density of 25,000 cells per well. 2.5-5% KIR2.1 Bacmam virus was added to the final cell suspension before seeding into cell plates. HEK cells were grown in Dulbecco's Modified Eagle's Medium (DMEM) supplemented with 10% FBS (Fetal Bovine Serum, qualified; Sigma #F4135), 1% NEAA (Non-Essential Amino Acids, Gibco #11140), 1% HEPES (Gibco #15630), 1% Pen-Strep (Penicillin-Streptomycin; Gibco #15140) and 5 μg/ml Blasticidin (Gibco #R210-01). Cells were expanded in vented cap cell culture flasks, with 90-95% humidity and 5% CO2.
Reagents and Stock Solutions:
• 100 mg/mL Pluronic F-127 (Sigma #P2443), in dry DMSO • Compound Plates: Corning 384-well Polypropylene Round Bottom #3656 • Cell Plates: 384-well tissue culture treated plates (Greiner #781091-2B)
2.5-5% KIR 2.1 Bacmam virus (produced in-house), prepared as described in Section 3.3 of J. A. Fornwald et al., Gene Expression in Mammalian Cells Using BacMam, a Modified Baculovirus System, 1350 Methods in Molecular Biology 95-116 (2016), the entire contents of which are incorporated by reference. The concentration used can be dependent on viral titer of each batch.
5 mM DiSBAC6(3), a voltage sensitive oxonol acceptor (CAS number 169211-44-3; 5-[3-(1,3-dihexylhexahydro-4,6-dioxo-2-thioxo-5-pyrimidinyl)-2-propen-1-ylidene]-1,3-dihexyldihydro-2-thioxo-4,6(1H,5H)-pyrimidinedione), in dry DMSO. The preparation of DiSBAC6(3) is analogous to that of DiSBAC4(3) as described in Voltage Sensing by Fluorescence Resonance Energy Transfer in Single Cells, Gonzalez, J. E. and Tsien, R. Y. (1995) Biophys. J. 69, 1272-1280.
5 mM CC2-DMPE, a commercially available membrane-bound coumarin phospholipid FRET donor (ThermoFisher Scientific catalog number K1017, CAS number 393782-57-5; tetradecanoic acid, 1,1′-[(1R)-1-[8-(6-chloro-7-hydroxy-2-oxo-2H-1-benzopyran-3-yl)-3-hydroxy-3-oxido-8-oxo-2,4-dioxa-7-aza-3-phosphaoct-1-yl]-1,2-ethanediyl] ester) was prepared in dry DMSO. See also, Improved indicators of cell membrane potential that use fluorescence resonance energy transfer, Gonzalez, J. E. and Tsien, R. Y. (1997) Chem. Biol. 4, 269-277.
Voltage Assay Background Suppression Compound (VABSC-1) is prepared in H2O (89-363 mM, range used to maintain solubility)
Human Serum (HS, Millipore #S1P1-01KL, or Sigma SLBR5469V and SLBR5470V as a 50%/50% mixture, for 25% assay final concentration)
• Sodium Chloride 160 mM (9.35 g/L), Potassium Chloride, 4.5 mM (0.335 g/L), Glucose 10 mM (1.8 g/L), Magnesium Chloride (Anhydrous) 1 mM (0.095 g/L), Calcium Chloride 2 mM (0.222 g/L), HEPES 10 mM (2.38 g/L) in water. […]

[1] = compound number with "*": assay performed in the presence of human serum
[2] = compound number without "*" (not marked as run in the presence of human serum)

human NaV 1.8, sequence (Q9Y5Y9 126-1722 limits assumed): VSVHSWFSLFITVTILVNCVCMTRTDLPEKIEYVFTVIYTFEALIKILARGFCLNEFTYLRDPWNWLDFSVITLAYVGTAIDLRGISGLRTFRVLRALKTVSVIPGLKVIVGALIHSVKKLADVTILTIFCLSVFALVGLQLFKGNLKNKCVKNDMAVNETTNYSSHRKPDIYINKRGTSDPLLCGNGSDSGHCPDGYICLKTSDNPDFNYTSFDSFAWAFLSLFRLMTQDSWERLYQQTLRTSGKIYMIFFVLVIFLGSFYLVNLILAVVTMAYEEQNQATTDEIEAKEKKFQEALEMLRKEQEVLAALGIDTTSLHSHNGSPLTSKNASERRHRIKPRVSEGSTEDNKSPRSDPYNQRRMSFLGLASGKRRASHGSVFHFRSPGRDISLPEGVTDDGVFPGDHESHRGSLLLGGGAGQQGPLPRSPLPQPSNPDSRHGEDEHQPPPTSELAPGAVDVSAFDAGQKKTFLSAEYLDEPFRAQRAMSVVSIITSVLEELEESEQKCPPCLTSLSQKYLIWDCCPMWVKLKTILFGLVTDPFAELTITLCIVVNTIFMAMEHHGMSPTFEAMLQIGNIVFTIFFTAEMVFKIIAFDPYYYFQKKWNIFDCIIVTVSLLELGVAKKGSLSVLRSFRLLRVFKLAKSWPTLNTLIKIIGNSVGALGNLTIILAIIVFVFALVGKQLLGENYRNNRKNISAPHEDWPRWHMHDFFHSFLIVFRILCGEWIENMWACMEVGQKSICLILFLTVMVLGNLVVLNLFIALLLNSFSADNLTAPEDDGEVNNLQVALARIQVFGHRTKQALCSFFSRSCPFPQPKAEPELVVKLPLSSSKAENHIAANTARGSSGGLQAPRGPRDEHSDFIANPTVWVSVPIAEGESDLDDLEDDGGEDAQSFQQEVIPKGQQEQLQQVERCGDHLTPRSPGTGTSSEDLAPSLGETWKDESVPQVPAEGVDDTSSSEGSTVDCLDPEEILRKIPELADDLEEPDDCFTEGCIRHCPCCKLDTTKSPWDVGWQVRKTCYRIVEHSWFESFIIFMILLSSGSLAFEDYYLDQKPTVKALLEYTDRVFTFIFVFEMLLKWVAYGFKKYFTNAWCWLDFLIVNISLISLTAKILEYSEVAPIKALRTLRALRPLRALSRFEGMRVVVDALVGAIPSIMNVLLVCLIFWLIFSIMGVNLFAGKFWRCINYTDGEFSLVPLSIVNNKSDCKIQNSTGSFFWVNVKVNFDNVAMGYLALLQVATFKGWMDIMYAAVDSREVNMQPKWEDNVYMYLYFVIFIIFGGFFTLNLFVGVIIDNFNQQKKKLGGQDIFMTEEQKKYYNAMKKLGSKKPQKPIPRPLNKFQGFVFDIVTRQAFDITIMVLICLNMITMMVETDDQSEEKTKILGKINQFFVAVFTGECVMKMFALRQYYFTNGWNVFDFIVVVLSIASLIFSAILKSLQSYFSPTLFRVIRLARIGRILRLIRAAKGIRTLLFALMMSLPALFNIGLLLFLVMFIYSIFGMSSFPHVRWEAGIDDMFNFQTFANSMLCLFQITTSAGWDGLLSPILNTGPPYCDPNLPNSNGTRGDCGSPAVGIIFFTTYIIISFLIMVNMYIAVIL

Row | SMILES | IC50 [1] [nM] | IC50 [2] [nM]
1 | COc1c([C@@H]2[C@@H](C(=O)Nc3ccnc(C(N)=O)c3)OC(C)(C)[C@@H]2OC)ccc(F)c1F (stereo in doubt) [Compound 19, rel-4-((2S,3S,4R)-3-(3,4-difluoro-2-methoxyphenyl)-4-methoxy-5,5-dimethyltetrahydrofuran-2-carboxamido)picolinamide] | ≥ 1000 | 
2 | CCO[C@H]1[C@@H](c2ccc(F)c(F)c2OC)[C@H](C(=O)Nc2ccnc(C(N)=O)c2)O[C@@]1(C)C(F)(F)F [Compound 25, 4-((2R,3R,4S,5R)-3-(3,4-difluoro-2-methoxyphenyl)-4-ethoxy-5-methyl-5-(trifluoromethyl)tetrahydrofuran-2-carboxamido)picolinamide] |  | < 10
3 | COc1c([C@@H]2[C@@H](C(=O)Nc3ccnc([C@@H](O)CO)c3)OC(C)(C)[C@@H]2OC)ccc(F)c1F (single isomer, unassigned) [Compound 21] | ≥ 1000 | 
4 | CO[C@H]1[C@@H](c2ccc(F)c(F)c2C)[C@H](C(=O)Nc2ccnc(C(N)=O)c2)O[C@@]1(C)C(F)(F)F [Compound 7, 4-((2R,3R,4S,5R)-3-(3,4-difluoro-2-methylphenyl)-4-methoxy-5-methyl-5-(trifluoromethyl)tetrahydrofuran-2-carboxamido)picolinamide] |  | < 10

Source: US12662470B2, “Hydroxy and (halo)alkoxy substituted tetrahydrofurans as modulators of sodium channels” (VERTEX PHARMACEUTICALS INCORPORATED, priority 2021, dated 2026)
